# Experimental data published in patent publication US10576086B2, “Triazine derivatives as interferon-gamma inhibitors” (University of Greenwich, priority 2015, dated 2020).
# How the values were obtained:
# PBMCs = assay: Experiment 1: PBMC viability, trypan blue exclusion; assay type: cell-based, human; details: after 24 h incubation
# Experimental: Cell viability was checked using trypan blue exclusion, using 0.04% trypan blue solution (0.4% trypan blue solution (Sigma, UK) diluted 10× with PBS). 10 μl trypan blue solution was mixed with 10 μl cell suspension, and after 5 minutes was mounted onto the haemocytometer. The total number of cells, and the total number of viable (colourless) cells were counted in three 1 mm squares. Viability was greater than 85% in all cases.
# The tubes were incubated at 37° C. for 24 hours under a 5% CO2 atmosphere. After incubation, the cells (>75% viable according to trypan blue test) were centrifuged at 3000 prm for 10 minutes, and the cell-free supernatants were collected and stored at −70° C. before analysis for IFN-γ.
# [1] = system: IFN-γ production in human peripheral blood mononuclear cells (PBMCs); assay: Experiment 2: IFN-γ production by PHA-stimulated human PBMCs, ELISA; assay type: cell-based; details: for [IFN-γ]: PHA 5 μg/ml
# Experimental: A similar set of tests were carried out, in which three compounds known as CEN-079(3,5-diamino-6-[2-(3,4,5-trichlorothienyl)]-1,2,4-triazine), CEN-092(3,5-diamino-6-(3,5-bistrifluoromethylphenyl)-1,2,4-triazine) and CEN-216(3,5-diamino-6-(2,3-dichlorophenyl)-2,3(2,5)-dihydro-3(5)-imino-2-(2,2,2-trichloroethyl)-1,2,4-triazine) were compared with lamotrigine. CEN-079, CEN-092 and CEN-216 are within the scope of Formulae 1, 2 and 3.
# 50 ml of blood from three healthy adult donors was collected by venepuncture in heparinised tubes. The blood samples where centrifuged at 3000 rpm for 15 minutes. The supernatant plasma was collected in a centrifuge tube, and centrifuged at 3000 rpm for a further 10 minutes. The supernatant was then collected in a plain tube, and stored at −70° C. for future use.
# The cells from the first centrifuged heparinised tube were diluted 1:1 in RPMI-1640, and mixed by multiple inversions. The cell mixture was then slowly layered, using a sterile plastic 3 ml pipette, along a tube wall containing lymphoprep (Nycomed) at a ratio of 2:1 cells/RPMI-1640:Lymphoprep in a 25 ml universal tube. The mixture was centrifuged at 2400 rpm for 30 minutes, and left to stand for 20 minutes. PBMCs were slowly removed from the interface using a sterile plastic pipette, and collected in a 15 ml centrifuge tube.
# The cells were washed twice by diluting in RPMI-1640 with 2 mM L-glutamine, 100 U/ml penicillin and 100 μg/ml streptomycin at a ratio of 1:1. The mixture was centrifuged at 3000 rpm for 15 minutes, and the supernatant decanted. PBMCs were then diluted in RPMI-1640 containing 2 mM L-glutamine, 100 U/ml penicillin and 100 μg streptomycin, to make up a volume of 6 ml for subjects 1 and 2, and 9 ml for subject 3.
# Cells were counted using an Improved Neubauer haemocytometer (Hawksley, UK) on a light microscope. 10 μl of cell suspension was loaded onto the haemocytometer using a sterile plastic pipette. Cells were counted in five out of 25 1 mm squares, from which the total cell count was calculated.
# 5 μg/ml PHA was used as a T cell activating agent for the production of IFN-γ. The PBMCs were treated with the four test compounds (lamotrigine, CEN-079, CEN-092, CEN-216) at concentrations of 10 μM, 30 μM and 300 μM to assess their effects on IFN-γ production by the stimulated T cells.
# The tests were carried out as for Experiment 1, in which 2×10^6 PBMC/ml, 25 μl of 5% autologous plasma, and 2.63 μl of 5 μg/ml PHA were used. Test compound at each concentration was then added, except for one control case.
# 10 μM solutions were obtained by adding 1.05 μl of a 5 mM solution of the compounds to the above PBMC-containing solution. 30 μM solutions were obtained by adding 3.15 μl of the 5 mM solution of the compounds. 300 μM solutions were obtained by adding […] solutions of the compounds.
# The tubes were covered, gently shaken to mix the contents, and incubated for 24 hours at 37° C. The tubes were then centrifuged at 2500 rpm for 10 minutes. The supernatant was collected in a 3 ml plastic pipette, and aliquots were stored at −70° C. before being analysed.
# The test was performed according to the supplier's instructions. Donor samples were diluted 1:1 in phosphate buffered […] (PBS) and assayed simultaneously with IFN-γ standard samples, in duplicate. The standard curve ranged from 15.6 pg/ml to 1000 pg/ml.
# A 96-well multiwell microplate (high binding Costar) was prepared, by diluting a capture antibody (720 μg/ml of mouse anti-human IFN-γ) in PBS to a working concentration of 4.0 μg/ml. 100 μl was immediately coated on each well, and left overnight at room temperature. The wells were washed three times in wash buffer, using microplate autowasher (LT-3000, LabTech International Ltd). The remainder of the wash buffer in the wells was removed by blotting on to clean paper towels. The plate was blocked by adding 300 μl Block buffer (1% BSA in PBS) to each well and incubated at room temperature for 1 hour. […]
smiles,measurement,setting,value
"Nc1nnc(-c2cccc(Cl)c2Cl)c(N)n1 [Lamotrigine, 3,5-diamino-6-(2,3-dichlorophenyl)-1,2,4-triazine]",effect on PBMC viability,PBMCs,did not appear to alter PBMC viability
same,[IFN-γ] vs control,"[1]; 10 μM, Subject 1, 24 h",104.7%
same,[IFN-γ],"[1]; 10 μM, Subject 1, 24 h",732 pg/mL
same,[IFN-γ] vs control,"[1]; 10 μM, Subject 2, 24 h",78.6%
same,[IFN-γ],"[1]; 10 μM, Subject 2, 24 h",1591.5 pg/mL
same,[IFN-γ] vs control,"[1]; 10 μM, Subject 3, 24 h",74.8%
same,[IFN-γ],"[1]; 10 μM, Subject 3, 24 h",1590.0 pg/mL
same,[IFN-γ] vs control,"[1]; 30 μM, Subject 1, 24 h",65%
same,[IFN-γ],"[1]; 30 μM, Subject 1, 24 h",454 pg/mL
same,[IFN-γ] vs control,"[1]; 30 μM, Subject 2, 24 h",69.1%
same,[IFN-γ],"[1]; 30 μM, Subject 2, 24 h",1400.5 pg/mL
same,[IFN-γ] vs control,"[1]; 30 μM, Subject 3, 24 h",39.2%
same,[IFN-γ],"[1]; 30 μM, Subject 3, 24 h",833.0 pg/mL
same,[IFN-γ] vs control,"[1]; 300 μM, Subject 1, 24 h",8.5%
same,[IFN-γ],"[1]; 300 μM, Subject 1, 24 h",59.5 pg/mL
same,[IFN-γ] vs control,"[1]; 300 μM, Subject 2, 24 h",10.6%
same,[IFN-γ],"[1]; 300 μM, Subject 2, 24 h",215.0 pg/mL
same,[IFN-γ] vs control,"[1]; 300 μM, Subject 3, 24 h",8.7%
same,[IFN-γ],"[1]; 300 μM, Subject 3, 24 h",186.0 pg/mL
same,inhibition of IFN-γ production in PBMCs (in words),"[1]; Experiment 2, human PBMCs",shown to be an inhibitor of IFN-γ production in PBMCs
same,IC50,"[1]; PBMC, human PBMCs, PHA-stimulated, read-out: IC50 (concentration to inhibit IFN-γ production by 50%)",43 µM
